Reference: ChEMBL document CHEMBL1926672, “New 5-benzylidenethiazolidin-4-one inhibitors of bacterial MurD ligase: design, synthesis, crystal structures, and biological evaluation” (Eur J Med Chem, 2011)
Values after ≈ are worked out from the molar mass of the structure shown.

Experiments:
[1] = Inhibition of Escherichia coli MurD ligase assessed as addition of D-[14C]glu to UDP-N-acetyl-muramoyl-L-alanine after 30 mins by radioactivity assay
[2] = system: Escherichia coli; assay: Antibacterial activity against Escherichia coli ATCC 25922 after 18 to 24 hrs by macrodilution technique; type: functional
[3] = system: Pseudomonas aeruginosa; assay: Antibacterial activity against Pseudomonas aeruginosa […] after 18 to 24 hrs by macrodilution technique; type: functional
[4] = system: Staphylococcus aureus; assay: Antibacterial activity against Staphylococcus aureus ATCC 29213 after 18 to 24 hrs by macrodilution technique; type: functional
[5] = system: Enterococcus faecalis; assay: Antibacterial activity against Enterococcus faecalis ATCC 29212 after 18 to 24 hrs by macrodilution technique; type: functional
[6] = system: Escherichia coli; assay: Inhibition of Escherichia coli MurD ligase assessed as residual activity at 500 uM after 15 mins using UDP-MurNAc-L-Ala substrate by malachite green colorimetric method
[7] = Inhibition of Escherichia coli MurD ligase assessed as residual activity after 15 mins using UDP-MurNAc-L-Ala substrate by malachite green colorimetric method
[8] = system: Escherichia coli; assay: Inhibition of Escherichia coli MurD ligase assessed as residual activity at 250 uM after 15 mins using UDP-MurNAc-L-Ala substrate by malachite green colorimetric method

O=C(O)CC[C@@H](NC(=O)c1ccc(COc2ccc(/C=C3\SC(=S)NC3=O)cc2OCC(=O)O)cc1)C(=O)O
IC50 [1]: 34 µM
MBC [2]: > 128 µg/mL
MIC [2]: > 128 µg/mL
MBC [3]: > 128 µg/mL
MIC [3]: > 128 µg/mL
MBC [4]: > 128 µg/mL
MIC [4]: 128 µg/mL (≈ 223 µM)
MBC [5]: > 128 µg/mL
MIC [5]: 128 µg/mL (≈ 223 µM)

O=C(O)CC[C@@H](NC(=O)c1ccc(COc2ccc(/C=C3\SC(=O)NC3=O)cc2OCC(=O)O)cc1)C(=O)O
Activity [6]: 86%

O=C(O)CC[C@@H](NC(=O)c1cccc(COc2ccc(/C=C3\SC(=O)NC3=O)cc2)c1)C(=O)O
IC50 [7]: 128 µM

O=C(O)CC[C@@H](NC(=O)c1cccc(COc2ccc(/C=C3\SC(=S)NC3=O)cc2)c1)C(=O)O
IC50 [7]: 76 µM

O=C(O)CC[C@@H](NS(=O)(=O)c1ccc(COc2ccc(/C=C3\SC(=S)NC3=O)cc2OCC(=O)O)cc1)C(=O)O
IC50 [7]: 472 µM

O=C(O)CC[C@@H](NS(=O)(=O)c1ccc(COc2cccc(/C=C3\SC(=S)NC3=O)c2)cc1)C(=O)O
IC50 [1]: 45 µM
MBC [2]: > 128 µg/mL
MIC [2]: > 128 µg/mL
MBC [3]: > 128 µg/mL
MIC [3]: > 128 µg/mL
MBC [4]: > 128 µg/mL
MIC [4]: > 128 µg/mL
MBC [5]: > 128 µg/mL
MIC [5]: > 128 µg/mL

O=C(O)CC[C@@H](NC(=O)c1cccc(COc2ccc(Cn3ccc(=O)[nH]c3=O)cc2)c1)C(=O)O
Activity [6]: 86%

O=C(O)CC[C@@H](NS(=O)(=O)c1ccc(COc2ccc(/C=C3\SC(=O)NC3=O)cc2OCC(=O)O)cc1)C(=O)O
IC50 [7]: 814 µM

O=C(O)CC[C@@H](NC(=O)c1ccc(COc2cccc(/C=C3\SC(=O)NC3=O)c2)cc1)C(=O)O
Activity [6]: 79%

O=C(O)CC[C@@H](NC(=O)c1cccc(COc2cccc(/C=C3\SC(=O)NC3=O)c2)c1)C(=O)O
Activity [6]: 65%

O=C(O)CC[C@@H](NC(=O)c1ccc(COc2ccc(Cn3ccc(=O)[nH]c3=O)cc2)cc1)C(=O)O
Activity [6]: 85%

O=C(O)CC[C@@H](NS(=O)(=O)c1ccc(COc2cccc(/C=C3\SC(=O)NC3=O)c2)cc1)C(=O)O
Activity [8]: 71%

O=C(O)CC[C@@H](NC(=O)c1cccc(COc2cccc(/C=C3\SC(=S)NC3=O)c2)c1)C(=O)O
IC50 [1]: 47 µM

O=C(O)CC[C@@H](NC(=O)c1ccc(COc2cccc(/C=C3\SC(=S)NC3=O)c2)cc1)C(=O)O
IC50 [1]: 28 µM
MBC [2]: > 128 µg/mL
MIC [2]: > 128 µg/mL
MBC [3]: > 128 µg/mL
MIC [3]: > 128 µg/mL
MBC [4]: > 128 µg/mL
MIC [4]: > 128 µg/mL
MBC [5]: > 128 µg/mL
MIC [5]: > 128 µg/mL

O=C(O)CC[C@@H](NC(=O)c1cccc(CNc2ccc(/C=C3\SC(=S)NC3=O)cc2)c1)C(=O)O
IC50 [1]: 45 µM

O=C(O)CC[C@@H](NS(=O)(=O)c1ccc(COc2ccc(/C=C3\SC(=S)NC3=O)cc2)cc1)C(=O)O
IC50 [1]: 120 µM
